Results as given in patent US6506766B1 (Abbott Laboratories, priority 1998, dated 2003).

Tests used:
[1] = target: T1, human glucocorticoid receptor-α [GRX] isoform (Homo sapiens, UniProt P04150); assay: Radioligand binding with human glucocorticoid receptor cytosol ([3H]-dexamethasone competition); settings: GRX cytosol expressed in insect SF21 cells, [3H]-Dex ~0.9 nM, 4° C. overnight; Ki by Cheng-Prusoff, KL ~[…]; read-out: Ki (nM) GR
T1 construct: host or cells: insect SF21 cells (baculovirus)
T1 sequence (P04150 1-777): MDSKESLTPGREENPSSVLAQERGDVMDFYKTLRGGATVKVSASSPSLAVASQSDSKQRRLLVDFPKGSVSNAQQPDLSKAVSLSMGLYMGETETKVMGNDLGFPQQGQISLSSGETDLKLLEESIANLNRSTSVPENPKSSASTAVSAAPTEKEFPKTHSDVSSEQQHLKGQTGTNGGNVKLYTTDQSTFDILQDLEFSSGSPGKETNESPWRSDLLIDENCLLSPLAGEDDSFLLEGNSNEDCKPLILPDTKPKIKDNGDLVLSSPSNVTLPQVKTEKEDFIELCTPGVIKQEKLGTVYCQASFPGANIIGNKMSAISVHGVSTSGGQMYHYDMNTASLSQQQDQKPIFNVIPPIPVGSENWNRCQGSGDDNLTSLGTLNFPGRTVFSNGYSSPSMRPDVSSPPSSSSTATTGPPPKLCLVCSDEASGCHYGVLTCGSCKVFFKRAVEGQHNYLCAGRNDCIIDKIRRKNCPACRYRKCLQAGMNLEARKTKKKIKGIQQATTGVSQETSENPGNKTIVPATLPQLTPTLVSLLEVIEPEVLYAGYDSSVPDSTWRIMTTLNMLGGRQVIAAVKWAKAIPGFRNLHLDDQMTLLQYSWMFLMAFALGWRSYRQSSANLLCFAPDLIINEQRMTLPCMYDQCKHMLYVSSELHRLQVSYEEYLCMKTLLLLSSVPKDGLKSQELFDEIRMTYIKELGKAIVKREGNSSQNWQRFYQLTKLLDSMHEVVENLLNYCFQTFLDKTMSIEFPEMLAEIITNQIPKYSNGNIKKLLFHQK

[2] = target: T2, human progesterone receptor-A [PRA] isoform (Homo sapiens, UniProt P06401); assay: Radioligand binding with human progesterone receptor cytosol ([3H]-progesterone competition); settings: PRA cytosol expressed in insect SF21 cells, [3H]Prog ~0.8 nM, 4° C. overnight; Ki by Cheng-Prusoff, KL ~4.5 nM; read-out: Ki (nM) PR
T2 construct: host or cells: insect SF21 cells (baculovirus)
T2 sequence (P06401 1-769 isoform P06401-2): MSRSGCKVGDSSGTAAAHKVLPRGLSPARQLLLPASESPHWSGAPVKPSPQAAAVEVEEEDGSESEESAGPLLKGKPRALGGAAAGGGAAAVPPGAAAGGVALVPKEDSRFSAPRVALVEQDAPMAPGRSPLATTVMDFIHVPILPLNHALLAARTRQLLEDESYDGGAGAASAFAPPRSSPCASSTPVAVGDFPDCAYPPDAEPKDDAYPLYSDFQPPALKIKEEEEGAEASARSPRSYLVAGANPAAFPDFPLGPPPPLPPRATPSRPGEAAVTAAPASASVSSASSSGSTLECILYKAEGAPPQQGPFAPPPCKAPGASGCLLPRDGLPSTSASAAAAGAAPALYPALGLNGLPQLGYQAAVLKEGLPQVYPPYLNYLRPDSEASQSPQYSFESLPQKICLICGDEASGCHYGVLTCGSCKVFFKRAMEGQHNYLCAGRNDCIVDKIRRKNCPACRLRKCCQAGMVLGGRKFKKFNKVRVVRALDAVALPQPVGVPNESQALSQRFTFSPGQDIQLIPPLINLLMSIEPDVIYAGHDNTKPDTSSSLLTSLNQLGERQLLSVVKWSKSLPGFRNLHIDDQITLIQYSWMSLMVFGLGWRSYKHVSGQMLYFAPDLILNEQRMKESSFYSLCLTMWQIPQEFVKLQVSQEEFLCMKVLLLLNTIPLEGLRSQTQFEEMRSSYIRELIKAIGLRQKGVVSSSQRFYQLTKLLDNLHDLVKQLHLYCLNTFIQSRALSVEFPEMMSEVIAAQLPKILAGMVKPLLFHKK

## COc1cccc2c1-c1ccc3c(c1C(N(C)c1ccccc1)O2)C(C)=CC(C)(C)N3 (stereo not drawn) [Example 35, 2,5-Dihydro-10-methoxy-2,2,4,N-tetramethyl-N-phenyl-1H-[1]benzopyrano[3,4-f]quinolin-5-amine]
[1]
  Ki: 260 nM
[2]
  Ki: ≥ 10000 nM

## COc1cccc2c1-c1ccc3c(c1CO2)C(C)=CC(C)(C)N3 [Example 38, 2,5-Dihydro-10-methoxy-2,2,4-trimethyl-1H-[1]benzopyrano[3,4-f]quinoline]
[1]
  Ki: 207 nM
[2]
  Ki: ≥ 10000 nM

## COc1cccc2c1-c1ccc3c(c1C(c1ccc(N(C)C)cc1)O2)C(C)=CC(C)(C)N3 (stereo not drawn) [Example 39, 4-(2,5-Dihydro-10-methoxy-2,2,4-trimethyl-1H-[1]benzopyrano[3,4-f]quinolin-5-yl)-N,N-dimethylbenzenamine]
[1]
  Ki: 31 nM
[2]
  Ki: ≥ 10000 nM

## COc1ccc(C2Oc3cccc(OC)c3-c3ccc4c(c32)C(C)=CC(C)(C)N4)s1 (stereo not drawn) [Example 40, 2,5-Dihydro-10-methoxy-2,2,4-trimethyl-5-(5-methoxy-2-thienyl)1H-[1]benzopyrano[3,4-f]quinoline]
[1]
  Ki: 18 nM
[2]
  Ki: 18100 nM

## CCCc1ccc(C2Oc3cccc(OC)c3-c3ccc4c(c32)C(C)=CC(C)(C)N4)s1 (stereo not drawn) [Example 41, 2,5-Dihydro-10-methoxy-2,2,4-trimethyl-5-(5-propyl-2-thienyl)-1H-[1]benzopyrano[3,4-f]quinoline]
[1]
  Ki: 9.5 nM
[2]
  Ki: 3300 nM

## COc1cccc2c1-c1ccc3c(c1C(c1ccc(N4CCOCC4)cc1)O2)C(C)=CC(C)(C)N3 (stereo not drawn) [Example 42, 2,5-Dihydro-10-methoxy-2,2,4-trimethyl-5-[4-(1-morpholinyl)phenyl]1H-[1]benzopyrano[3,4-f]quinoline]
[1]
  Ki: 99 nM
[2]
  Ki: ≥ 10000 nM

## COc1cccc2c1-c1ccc3c(c1C(CC(=O)C(C)(C)C)O2)C(C)=CC(C)(C)N3 (stereo not drawn) [Example 43, 1-(2,5-Dihydro-10-methoxy-2,2,4-trimethyl-1H-[1]benzopyrano[3,4-f]quinolin-5yl)-3,3-dimethyl-2-butanone]
[1]
  Ki: 72 nM
[2]
  Ki: ≥ 10000 nM

## COc1cccc2c1-c1ccc3c(c1C(C#N)O2)C(C)=CC(C)(C)N3 (stereo not drawn) [Example 44, 2,5-Dihydro-10-methoxy-2,2,4-trimethyl-1H-[1]benzopyrano[3,4-f]quinoline-5-carbonitrile]
[1]
  Ki: 190 nM
[2]
  Ki: 19500 nM

## COC(=O)CC1Oc2cccc(OC)c2-c2ccc3c(c21)C(C)=CC(C)(C)N3 (stereo not drawn) [Example 46, Methyl 2,5-Dihydro-10-methoxy-2,2,4-trimethyl-1H-[1]benzopyrano[3,4-f]quinoline-5-acetate]
[1]
  Ki: 2.7 nM
[2]
  Ki: 3440 nM

## COc1cccc2c1-c1ccc3c(c1C(CC(=O)c1ccccc1)O2)C(C)=CC(C)(C)N3 (stereo not drawn) [Example 47, 2-(2,5-Dihydro-10-methoxy-2,2,4-trimethyl-1H-[1]benzopyrano[3,4-f]quinolin-5-yl)-1-phenylethanone]
[1]
  Ki: 174 nM
[2]
  Ki: ≥ 10000 nM

## C=C(CCl)CC1Oc2cccc(OC)c2-c2ccc3c(c21)C(C)=CC(C)(C)N3 (stereo not drawn) [Example 48, 5-[2-(Chloromethyl)-2-propenyl]-2,5-dihydro-10-methoxy-2,2,4-trimethyl-1H-[1]benzopyrano[3,4-f]quinoline]
[1]
  Ki: 5.8 nM
[2]
  Ki: 2770 nM

## C=C(COC(C)=O)CC1Oc2cccc(OC)c2-c2ccc3c(c21)C(C)=CC(C)(C)N3 (stereo not drawn) [Example 49]
[1]
  Ki: 13 nM
[2]
  Ki: ≥ 10000 nM

## COc1cccc2c1-c1ccc3c(c1C(c1ccc(C)cc1)O2)C(C)=CC(C)(C)N3 (stereo not drawn) [Example 50, 2,5-Dihydro-10-methoxy-2,2,4-tnimethyl-5-(4-methylphenyl)-1H-[1]benzopyrano[3,4-f]quinoline]
[1]
  Ki: 4.9 nM
[2]
  Ki: 9450 nM

## COc1cccc2c1-c1ccc3c(c1C(c1ccc(C)c(F)c1)O2)C(C)=CC(C)(C)N3 (stereo not drawn) [Example 51]
[1]
  Ki: 18 nM
[2]
  Ki: 7330 nM

## COc1cccc2c1-c1ccc3c(c1C(c1cccc(Br)c1)O2)C(C)=CC(C)(C)N3 (stereo not drawn) [Example 52, 5-(3-Bromophenyl)-2,5-dihydro-10-methoxy-2,2,4-trimethyl-1H-[1]benzopyrano[3,4-f]quinoline]
[1]
  Ki: 3 nM
[2]
  Ki: 2270 nM

## COc1cccc2c1-c1ccc3c(c1C(c1ccc(F)c(C)c1)O2)C(C)=CC(C)(C)N3 (stereo not drawn) [Example 55]
[1]
  Ki: 8.2 nM
[2]
  Ki: ≥ 10000 nM

## COc1cccc2c1-c1ccc3c(c1C(c1cccc(F)c1)O2)C(C)=CC(C)(C)N3 (stereo not drawn) [Example 56, 5-(3-Fluorophenyl)-2,5-Dihydro-10-methoxy-2,2,4-trimethyl-1H-[1]benzopyrano[3,4-f]quinoline]
[1]
  Ki: 6.2 nM
[2]
  Ki: ≥ 10000 nM

## COc1cccc2c1-c1ccc3c(c1C(C(C)C)O2)C(C)=CC(C)(C)N3 (stereo not drawn) [Example 58, 2,5-Dihydro-10-methoxy-2,2,4-trimethyl-5-(1-methylethyl)-1H-[1]benzopyrano[3,4-f]quinoline]
[1]
  Ki: 9 nM
[2]
  Ki: 8570 nM

## COc1cccc2c1-c1ccc3c(c1C(CC(C)C)O2)C(C)=CC(C)(C)N3 (stereo not drawn) [Example 59, 2,5-Dihydro-10-methoxy-2,2,4-trimethyl-5-(2-methlpropyl)-1H-[1]benzopyrano[3,4-f]quinoline]
[1]
  Ki: 9.5 nM
[2]
  Ki: 16600 nM

## CCC1Oc2cccc(OC)c2-c2ccc3c(c21)C(C)=CC(C)(C)N3 (stereo not drawn) [Example 60, 5-Ethyl-2,5-dihydro-10-methoxy-2,2,4-trimethyl-1H-[1]benzopyrano[3,4-f]quinoline]
[1]
  Ki: 14 nM
[2]
  Ki: 10500 nM

## CCOC(=N)C1Oc2cccc(OC)c2-c2ccc3c(c21)C(C)=CC(C)(C)N3 (stereo not drawn) [Example 61, 2,5-Dihydro-10-methoxy-2,2,4-trimethyl-1H-[1]benzopyrano[3,4-f]quinoline-5-carboximidic Acid Ethyl Ester]
[1]
  Ki: 62 nM
[2]
  Ki: 14400 nM

## COc1cccc2c1-c1ccc3c(c1C(CC(=O)N(C)C)O2)C(C)=CC(C)(C)N3 (stereo not drawn) [Example 63, 2,5-Dihydro-10-methoxy-2,2,4,N,N-pentamethyl-1H-[1]benzopyrano[3,4-f]quinoline-5-acetamide]
[1]
  Ki: 511 nM
[2]
  Ki: ≥ 10000 nM

## COc1cccc2c1-c1ccc3c(c1C(CC(=O)NC1CC1)O2)C(C)=CC(C)(C)N3 (stereo not drawn) [Example 65, N-Cyclopropyl-2,5-Dihydro-10-methoxy-2,2,4-trimethyl-1H-[1]benzopyrano[3,4-f]quinoline-5-acetamide]
[1]
  Ki: 591 nM
[2]
  Ki: ≥ 10000 nM

## COc1cccc2c1-c1ccc3c(c1C(C1C=CC(=O)O1)O2)C(C)=CC(C)(C)N3 (stereo not drawn) [Example 67, 5-(2,5-Dihydro-10-methoxy-2,2,4-trimethyl-1H-[1]benzopyrano[3,4-f]quinolin-5-yl)2(5H)-furanone]
[1]
  Ki: 21.7 nM
[2]
  Ki: ≥ 10000 nM

## C=CCCC1Oc2cccc(OC)c2-c2ccc3c(c21)C(C)=CC(C)(C)N3 (stereo not drawn) [Example 68, 5-(32-Butenyl)-2,5-dihdro-10-methoxy-2,2,4-trimethyl-1H -1H-[1]benzopyrano[3,4-f]quinoline]
[1]
  Ki: 8 nM
[2]
  Ki: 9050 nM

## CCc1cccc2c1-c1ccc3c(c1C(c1ccccc1)O2)C(C)=CC(C)(C)N3 (stereo not drawn) [Example 70, 10-Ethyl-2,5-dihydro-2,2,4-trimethyl-5-phenyl-1H-[1]benzopyrano[3,4-f]quinoline]
[1]
  Ki: 25.5 nM
[2]
  Ki: 7300 nM

## CC1=CC(C)(C)Nc2ccc3c(c21)C(c1ccccc1)Oc1cccc(C)c1-3 (stereo not drawn) [Example 71, 2,5-Dihydro-2,2,4,10-tetrametnyl-5-phenyl-1H-[1]benzopyrano[3,4-f]quinoline]
[1]
  Ki: 7.7 nM
[2]
  Ki: 484 nM
